In patent US6605603B1, “Uses of 1-amino-3-(N,N-dimethylamino)-propylidene-1,1-bisphosphonic acid” (Gador, S.A., priority 1998, dated 2003):
Entries after “also recorded” stand apart in the source; their conditions may differ. Marks after values point to notes of the source that are not given here.

Experiments:
[1] = system: Osteoblast-like rat osteosarcoma cells (ROS17/2.8); assay: Determination of osteocalcin synthesis (radio-immunoassay of OC released into the medium); format: cell-based; settings: for order of potency relative to 1,25(OH)2D3 (induction of OC synthesis): 1,25(OH)2D3 = 1.0; for effectiveness on OC synthesis compared with the steroid hormone 1,25(OH)2D3 / stimulation of OC synthesis: 72 hours incubation
Description: Cells were grown by 72 hours in the absence (control) or presence of the indicated concentrations of 1α, 25-dihydroxy-vitamin D3[1,25(OH)2D3], EHDP, APD, OPD or NH2-OPD. Then osteocalcin (OC) released into the medium was quantitated as described in Example 4. Data are the average±SD of 3 independent experiments performed by triplicate.
(§1) Osteoblast-like rat osteosarcoma cells (ROS17/2.8) were cultured as monolayers at 37° C. in Dulbecco's modified Eagle's medium (DME) containing 10% fetal bovine serum under humidified air (5.5% CO2). After 48 hours, medium was changed to DME containing 1% fetal bovine serum. Unless otherwise stated, cells were allowed to grow until confluence (4-5 days after plating).
Osteoblasts grown by 48 hours in multiwells were changed to Dulbecco's modified Eagle's medium containing 1% fetal bovine serum plus the indicated concentration of BP, 10^−8 M 1,25(OH)2D3 (positive control), or vehicle alone, and then allowed to grow for an additional period of 72 hours. The medium from each well was collected and stored frozen at −80° C. until use for osteocalcin measurements. Osteocalcin (OC) was quantitatively measured by radio-immunoassay using a commercially avalaible kit (Osteocalcin DSL-6900, Diagnostic Systems Laboratories Inc., Webster, Tex., USA) according to manufacturer's instructions. Osteocalcin values were corrected for total cellular protein content.

[2] = system: Osteoblast-like rat osteosarcoma cells (ROS17/2.8); assay: Intracellular calcium measurements (Fura-2 fluorimetry), with or without VDCC blockers, PLC inhibitors or thapsigargin; format: cell-based; set-up: Δ[Ca^2+]i: unit not given here; settings: for Ca^2+ response after depletion of Ca^2+ stores with thapsigargin: 1 μM thapsigargin, bisphosphonate 10 nM; for % Inhibition (decrease in Δ[Ca^2+]i) / [Ca^2+]i / Δ[Ca^2+]i: 10^−8 M; for rapid (1 min) increase in cytosolic Ca^2+ after pretreatment with PLC inhibitors: U73122 (2 μM) or neomycin (0.5 mM); for rapid (1 min) increase in cytosolic Ca^2+ after pretreatment with U73343: U73343, analogue of U73122 devoid of effect on PLC, not shown; for reduction of the induced [Ca^2+]i increase by VDCC blockers: pretreatment with nifedipine (2 μM) or verapamil (5 μM)
Description: as §1
Intracellular Ca^2+ changes were monitored by using the Ca^2+-sensitive fluorescent dye Fura-2 as previously described (Vasquez et al., 1998, J. Biol. Chem. 273, 33954-33960). Cell dye loading was achieved by incubating the cells in buffer A containing (in mM): 138 NaCl, 5 KCl, 1 MgCl2, 5 glucose, 10 HEPES (pH 7.4), 1.5 CaCl2, plus 0.1% bovine serumalbumin (BSA), 2 μM of the pentaacetoxymethylester derivative (membrane permeable) Fura-2/AM and 0.012% pluronic F-127, in the dark during 40 min at room temperature (20-25° C.) in order to minimize dye compartmentalization. Unloaded dye was washed out and cells were stored in buffer B (buffer A without BSA, Fura-2/AM and pluronic F-127) in the dark (room temperature) by at least 30 min prior to use, to allow for complete intracellular dye deesterification. For fluorescence measurements the coverslips containing dye-loaded cells were mounted into quartz cuvettes and introduced into the thermostatized (37° C.) sample compartment of a SLM Aminco 8100 spectrofluorimeter. Fura-2 intracellular fluorescence intensity was monitored at an emission wavelength of 510 nm (8 nm bandpass) by alternating with an electronically controlled chopper (300 Hz) the excitation wavelength between 340 and 390 nm employing a dual excitation monochromator at 4 nm bandpass. Signals from short and long wavelength were ratioed (R=340/390) thus making the measurement independent of variations in cellular dye content, dye leakage or photobleaching. Calibration of Fura-2 signal to calculate [Ca^2+]i values was performed for each coverslip as follows: maximal (Rmax) and minimal (Rmin) intracellular dye fluorescence signals were determined by adding 5 μM ionomycin plus 3 mM Ca^2+ and 10 mM EGTA (pH 7.0) plus 10 mM Tris-base (pH 9.0), respectively.
[Ca^2+]i=Kd(R−Rmin)/(Rmax−R)×β
where R is the ratio of Fura-2 fluorescence at the selected wavelengths, Rmax and Rmin represent ratios from Ca^2+ saturated and Ca^2+ free intracellular dye, respectively, and β is the ratio between the specific fluorescence of the Ca^2+ free and Ca^2+ bound forms of the dye at the longer wavelength (Sf2/Sb2).
Fura-2 loaded osteoblasts were treated with vehicle (buffered saline solution, Basal), OPD (10−8 M) or NH2-OPD (10^−8 M) and intracellular Ca^2+ concentration ([Ca^2+]i) was measured as described. Given are [Ca^2+]i values corresponding to the plateau phase (5 min after BP exposure; see FIG. 3) of the BP-induced Ca^2+ response. When used, both nifedipine (2 μM) and verapamil (5 μM) were added 3 min before stimulation. Data are the average of 5 independent [Ca^2−]i recordings±sd. p values (*p<0.001; **p<0.01) are given for significant differences respect to basal. Percent (%) inhibition refers to the decrease in Δ[Ca^2+]i.
Fura-2 loaded cells were treated with vehicle (buffered saline solution, Basal), OPD (10^−8 M) or NH2-OPD (10^−8 M) and intracellular Ca^2+ concentration ([Ca^2+]i) was measured as described. Unless otherwise indicated, [Ca^2+]i stimulation was evaluated at the plateau phase of the BP-induced response (see FIG. 3). When used, the PLC inhibitors U73122 (2 μM) or neomycin (0.5 mM, data in parentheses) were added into the measurement cuvette 3 min before stimulation. In the PLC-inhibition assay [Ca^2+]i values measured at 1- and 5-min. after stimulation are given. Results are expressed as percent of control (100%) to allow comparison among different assay conditions, and are the average of 3 independent experiments±sd. *p<0.001; **p<0.01. Percent (%) inhibition refers to the decrease in Δ[Ca^2+]i.

[3] = system: bone resorption; settings: Van Beek E. et al., 1996, J. Bone Miner. Res. 11, 1492-1497; cited from earlier work
[4] = U73122 (2 μM), 1 min after stimulation
[5] = U73122 (2 μM), 5 min after stimulation
[6] = neomycin (0.5 mM, data in parentheses), 1 min
[7] = neomycin (0.5 mM, data in parentheses), 1 min after stimulation
[8] = neomycin (0.5 mM, data in parentheses), 5 min
[9] = neomycin (0.5 mM, data in parentheses), 5 min after stimulation
[10] = plateau phase (5 min), nifedipine (2 μM) pretreatment
[11] = plateau phase (5 min), nifedipine (2 μM) pretreatment 3 min before
[12] = plateau phase (5 min), no pretreatment, basal 135 ± 6
[13] = plateau phase (5 min), no pretreatment, difference to basal
[14] = plateau phase (5 min), verapamil (5 μM) pretreatment
[15] = plateau phase (5 min), verapamil (5 μM) pretreatment 3 min before
[16] = plateau phase, no PLC inhibitor
[17] = plateau phase, no PLC inhibitor, difference to control (100%)

Row | SMILES | order of potency relative to 1,25(OH)2D3 (induction of OC synthesis) ([1]; 10^−8 M, 72 hours) | time-to-peak of cytosolic Ca^2+ change ([2]; 10 nM) [s] | effectiveness on OC synthesis compared with the steroid hormone 1,25(OH)2D3 [1] | maximal change in cytosolic Ca^2+ relative to 1,25(OH)2D3 ([2]; 10 nM) | stimulation of OC synthesis [1] | Ca^2+ response after depletion of Ca^2+ stores with thapsigargin [2] | % Inhibition (decrease in Δ[Ca^2+]i) ([2]; U73122 (2 μM), 1 min) | [Ca^2+]i [2, 4] | % Inhibition (decrease in Δ[Ca^2+]i) ([2]; U73122 (2 μM), 5 min) | [Ca^2+]i [2, 5] | % Inhibition (decrease in Δ[Ca^2+]i) [2, 6] | [Ca^2+]i [2, 7] | % Inhibition (decrease in Δ[Ca^2+]i) [2, 8] | [Ca^2+]i [2, 9] | % Inhibition (decrease in Δ[Ca^2+]i) [2, 10] [%] | Δ[Ca^2+]i [2, 10] | [Ca^2+]i [2, 11] | [Ca^2+]i [2, 12] | Δ[Ca^2+]i [2, 13] | % Inhibition (decrease in Δ[Ca^2+]i) [2, 14] [%] | other results
1 | C=C1/C(=C\C=C2/CCC[C@]3(C)[C@@H]([C@H](C)CCCC(C)(C)O)CC[C@@H]23)C[C@@H](O)C[C@@H]1O [1,25(OH)2D3, 1α, 25-dihydroxy-vitamin D3] | 1.0 | 90 | – | – | – | – | – | – | – | – | – | – | – | – | – | – | – | – | – | – | release of OC into the culture medium increased respect to control, untreated cells ([1]; 10^−8 M, 72 hours): 100%
2 | NCCC(O)(P(=O)(O)O)P(=O)(O)O [APD, pamidronate] | 1.1 | 80 | more effective than the steroid hormone | less effective than the steroid | – | – | – | – | – | – | – | – | – | – | – | – | – | – | – | – | –
3 | CC(O)(P(=O)(O)O)P(=O)(O)O [EHDP, etidronate] | 0.85 | 120 | – | less effective than the steroid | – | – | – | – | – | – | – | – | – | – | – | – | – | – | – | – | rate of Ca^2+ elevation, initial phase (0-2 min) ([2]; 10 nM): slowest rate of Ca^2+ elevation
4 | CN(C)CCC(N)(P(=O)(O)O)P(=O)(O)O [NH2-OPD, 1-amino-3-(N,N-dimethylamino)-propylidene-1,1-bisphosphonic acid] | 0.85 | 80 | lower than for the secosteroid | less effective than the steroid | markedly stimulated OC synthesis in a dose-dependent fashion | completely blocked | 100% | 101 ± 5% of control (100%) | 100(100) % | 100 ± 11% of control (100%) | 99% | 99 ± 1% of control (100%) | 100(100) % | 100 ± 5% of control (100%) | 90 | 2 | 137 ± 6 nM | 150 ± 3** nM | 15 | 100 | antiresorptive activity [3]: complete loss of antiresorptive activity; also recorded: absolutely devoid of antiresorptive properties; [Ca^2+]i [2, 15]: 133 ± 7 nM; [Ca^2+]i [2, 16]: 137 ± 3** percent of control (100%); Δ[Ca^2+]i [2, 17]: 37; rapid increase in [Ca^2+]i (time of onset) ([2]; Fura-2 loaded cells): 60 s; rapid (1 min) increase in cytosolic Ca^2+ after pretreatment with PLC inhibitors [2]: totally blocked; rapid (1 min) increase in cytosolic Ca^2+ after pretreatment with U73343 [2]: not by U73343; reduction of the induced [Ca^2+]i increase by VDCC blockers [2]: almost completely abolished; return of [Ca^2+]i to near basal levels after peak ([2]; transient Ca^2+ rise, down-turn phase after peak): 1 to 2 min
5 | CN(C)CCC(O)(P(=O)(O)O)P(=O)(O)O [OPD, olpadronate] | 1.9 | 60 | more effective than the steroid hormone | equipotent to the steroid | markedly stimulated OC synthesis in a dose-dependent fashion | completely blocked | 100(100) % | 105 ± 3% of control (100%) | 100(100) % | 100 ± 5% of control (100%) | 100(100) % | 98 ± 2% of control (100%) | 100(100) % | 100 ± 8% of control (100%) | 70 | 21 | 156 ± 8** nM | 205 ± 10* nM | 70 | 85 | Δ[Ca^2+]i [2, 14]: 11; [Ca^2+]i [2, 15]: 146 ± 5 nM; [Ca^2+]i [2, 16]: 164 ± 9* percent of control (100%); Δ[Ca^2+]i [2, 17]: 64; rapid (1 min) increase in cytosolic Ca^2+ after pretreatment with PLC inhibitors [2]: totally blocked; rapid (1 min) increase in cytosolic Ca^2+ after pretreatment with U73343 [2]: not by U73343; reduction of the induced [Ca^2+]i increase by VDCC blockers [2]: 70%
